Values of other authors, collected in US8461086B2, “Microcapsule composition for inhibiting an ethylene response in plants, method for preparing microcapsules, and method using the microcapsule composition” (Lytone Enterprise, Inc., priority 2009, dated 2013).

Key:
humans and livestock = conditions: within the effective concentration range
plants = conditions: applied to plants

In the case of `CC1=CC1` [Example 1-MCP, 1-methylcyclopropene], the “harm to humans and livestock” value (humans and livestock) is listed as “does no harm” and the effective dosages (plants) is listed as 0.1 to 1.0 ppm (vol/vol).
